This note sets out measurements from patent US10899738B2 (THE REGENTS OF THE UNIVERSITY OF MICHIGAN, priority 2016, dated 2021).

Assay [1] can be described thus: Cell growth inhibition, CellTiter-Glo Luminescent Cell Viability Assay. The assay is classed as cell-based. Put shortly: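 Cells seeded at 2,000/well with serially diluted compound and cultured 4 days at 37 °C, 5% CO2. Viability read by CellTiter-Glo luminescence; IC50 derived from dose-response.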
For orientation: ATP-based viability assays read luminescence as a measure of living cells.

The target in a further assay is menin protein (Homo sapiens (Human), UniProt O00255). The experiment in a line: biochemical. The assay is classed as binding. Conditions: FP competitive binding; menin protein 4 nM, FAM-MM2 probe 2 nM; read-out: Menin Binding Affinity IC50. Put shortly: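 Test compounds displaced FAM-MM2 (2 nM) from 4 nM menin after 30 min equilibration at room temperature in PBS buffer containing bovine γ-globulin, 4% DMSO and Triton X-100. Binding was followed by fluorescence polarization. Competition curves were fitted by nonlinear regression to give IC50 and Ki.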
Sequence of menin protein (O00255 whole entry): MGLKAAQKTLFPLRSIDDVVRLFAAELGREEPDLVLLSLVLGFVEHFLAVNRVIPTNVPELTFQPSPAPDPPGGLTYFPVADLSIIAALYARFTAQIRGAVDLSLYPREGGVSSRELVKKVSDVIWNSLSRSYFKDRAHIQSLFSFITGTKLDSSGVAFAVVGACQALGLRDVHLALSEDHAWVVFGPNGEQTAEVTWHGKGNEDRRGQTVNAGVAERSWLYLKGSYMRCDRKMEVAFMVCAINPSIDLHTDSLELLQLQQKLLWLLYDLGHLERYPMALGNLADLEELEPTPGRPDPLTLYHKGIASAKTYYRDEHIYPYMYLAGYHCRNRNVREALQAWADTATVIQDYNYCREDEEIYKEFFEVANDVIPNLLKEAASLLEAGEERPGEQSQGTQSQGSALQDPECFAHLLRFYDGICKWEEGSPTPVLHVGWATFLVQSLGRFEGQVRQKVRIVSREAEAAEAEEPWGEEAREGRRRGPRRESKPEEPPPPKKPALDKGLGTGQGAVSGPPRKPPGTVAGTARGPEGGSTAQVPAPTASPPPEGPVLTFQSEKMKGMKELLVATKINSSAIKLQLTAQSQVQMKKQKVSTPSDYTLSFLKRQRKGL

Setting [2] is: MOLM-13, 96 h, read-out: Cell Growth Inhibition IC50 (μM) MOLM13, MOLM13 cells, 4 days, CellTiter-Glo.
[3] abbreviates: MV4-11, 96 h, read-out: Cell Growth Inhibition IC50 (μM) MV4, 11, MV4, 11 cells, 4 days, CellTiter-Glo.
Where [4] appears, read: MOLM-13, 96 h, MOLM13 cells, 4 days, CellTiter-Glo, read-out: Cell Growth Inhibition IC50 (μM) MOLM13.
[5] abbreviates: MV4-11, 96 h, MV4, 11 cells, 4 days, CellTiter-Glo, read-out: Cell Growth Inhibition IC50 (μM) MV4, 11.

SMILES strings stand for the structures. Where two headings read alike, the source gives them in different places.

The term IC50 denotes the concentration that inhibits the measured activity by half. In the case of `CCN1Cc2ccccc2C(C2CCCC2)(C2CCN(CC3CN(c4ccc(S(=O)(=O)C5CC5)cc4)C3)C(C)C2)C1` (stereo not drawn) [compound 95, 4-cyclopentyl-4-(1-((1-(4-(cyclopropylsulfonyl)phenyl)azetidin-3-yl)methyl)-2-methylpiperidin-4-yl)-2-ethyl-1,2,3,4-tetrahydroisoquinoline], the IC50 in assay [1] (MOLM13 cells, 4 days, CellTiter-Glo, read-out: Cell Growth Inhibition IC50 (μM) MOLM13) stood at 1.9 µM; in assay [1] (MV4, 11 cells, 4 days, CellTiter-Glo, read-out: Cell Growth Inhibition IC50 (μM) MV4, 11), 1.8 µM; on menin protein it was 24 nM.

Turning to `CNC(=O)O[C@H]1CCC[C@@H]1C(C#N)(c1ccccc1)C1CCN(CC2CN(c3ccc(C(F)(F)F)cc3)C2)CC1` (mixture of isomers) [compound 367, rac-(1S,2R)-2-(cyano(phenyl)(1-((1-(4-(trifluoromethyl)phenyl)azetidin-3-yl)methyl)piperidin-4-yl)methyl)cyclopentyl methylcarbamate], the IC50 in assay [1] (setting [2]) turned out to be 2.96 µM; in assay [1] (setting [3]), 1.66 µM; at menin protein it was 30 nM.

Regarding `CNS(=O)(=O)c1ccc(N2CC(CN3CCC(C4(C5CCCC5)NCCc5c(F)cccc54)CC3)C2)cc1` (stereo not drawn) [compound 119, 4-(3-((4-(1-cyclopentyl-5-fluoro-1,2,3,4-tetrahydroisoquinolin-1-yl)piperidin-1-yl)methyl)azetidin-1-yl)-N-methylbenzenesulfonamide], the IC50 in assay [1] (setting [4]) amounted to 1.3 µM; in assay [1] (setting [5]), 1.8 µM; at menin protein, 15 nM.

In the case of `CC(=O)N[C@H]1CCC[C@@H]1C(Cn1ccnc1)(c1ccccc1)C1CCN(CC2CN(c3ccc(S(=O)(=O)c4ccccc4)cc3)C2)CC1` (mixture of isomers) [compound 381, rac-N-((1S,2R)-2-(2-(1H-imidazol-1-yl)-1-phenyl-1-(1-((1-(4-(phenylsulfonyl)phenyl)azetidin-3-yl)methyl)piperidin-4-yl)ethyl)cyclopentyl) acetamide], the IC50 came to 0.67 µM in assay [1] (setting [2]), 0.14 µM in assay [1] (setting [3]) and 13 nM on menin protein.

In the case of `CNC(=O)O[C@H]1CCC[C@@H]1C(Cn1ccnc1)(c1ccccc1)C1CCN(CC2CN(c3ccc(S(=O)(=O)c4ccc(C(=O)O)cc4)cc3)C2)CC1` (mixture of isomers) [compound 362, rac-4-((4-(3-((4-(2-(1H-imidazol-1-yl)-1-((1R,2S)-2-((methylcarbamoyl)oxy)cyclopentyl)-1-phenylethyl)piperidin-1-yl)methyl)azetidin-1-yl)phenyl)sulfonyl)benzoic acid], the IC50 in assay [1] (read-out: Cell Growth Inhibition IC50 (μM) MOLM13, MOLM13 cells, 4 days, CellTiter-Glo) is > 10 µM; in assay [1] (read-out: Cell Growth Inhibition IC50 (μM) MV4, 11, MV4, 11 cells, 4 days, CellTiter-Glo), 4.79 µM; at menin protein, 8 nM.

Turning to `O=S(=O)(CC1CCCC1)c1ccc(N2CC(CN3CCC(C4(C5CCCC5)NCCc5ccccc54)CC3)C2)cc1` (stereo not drawn) [compound 91, 1-cyclopentyl-1-(1-((1-(4-((cyclopentylmethyl)sulfonyl)phenyl)azetidin-3-yl)methyl)piperidin-4-yl)-1,2,3,4-tetrahydroisoquinoline], the IC50 in assay [1] (setting [4]) came out at 1.7 ± 0.004 µM; in assay [1] (setting [5]), 1.3 ± 0.3 µM; on menin protein, 42 nM.

Regarding `CC(=O)N[C@H]1CCC[C@@H]1C1(C2CCN(CC3CN(c4ccc(S(=O)(=O)c5ccncc5)cc4)C3)CC2)CN(C)Cc2ccccc21` (mixture of isomers) [compound 271, rac-N-((1S,2R)-2-(2-methyl-4-(1-((1-(4-(pyridin-4-ylsulfonyl)phenyl)azetidin-3-yl)methyl)piperidin-4-yl)-1,2,3,4-tetrahydroisoquinolin-4-yl)cyclopentyl)acetamide], the IC50 in assay [1] (setting [2]) is 0.717 ± 0.002 µM; in assay [1] (setting [3]) it was 0.123 ± 0.043 µM; at menin protein it was 5 nM.

On to `CCN1Cc2ccccc2C(C2CCCC2)(C2CCN(CC3CN(c4ccc(S(=O)(=O)c5cnn(C)c5)cc4)C3)CC2)C1` (stereo not drawn) [compound 102, 4-cyclopentyl-2-ethyl-4-(1-((1-(4-((1-methyl-1H-pyrazol-4-yl)sulfonyl)phenyl)azetidin-3-yl)methyl)piperidin-4-yl)-1,2,3,4-tetrahydroisoquinoline], for which the IC50 came out at 0.708 µM in assay [1] (setting [4]), 0.267 µM in assay [1] (setting [5]) and 11 nM at menin protein.

With `CCc1cnccc1S(=O)(=O)c1ccc(N2CC(CN3CCC(C4(C5CCCC5)CN(CC)Cc5ccccc54)CC3)C2)cc1` (stereo not drawn) [compound 156, 4-cyclopentyl-2-ethyl-4-(1-((1-(4-((3-ethylpyridin-4-yl)sulfonyl)phenyl)azetidin-3-yl)methyl)piperidin-4-yl)-1,2,3,4-tetrahydroisoquinoline], the IC50 in assay [1] (setting [4]) amounted to 1.8 µM; in assay [1] (setting [5]) it was 0.654 µM; at menin protein, 8 nM.

Regarding `CNC(=O)O[C@H]1CCC[C@@H]1C(C#N)(c1ccccc1)C1CCN(CC2(F)CN(c3ccc(S(=O)(=O)c4cnn(C)c4)cc3)C2)CC1` (mixture of isomers) [compound 369, rac-(1S,2R)-2-(cyano(1-((3-fluoro-1-(4-((1-methyl-1H-pyrazol-4-yl)sulfonyl)phenyl)azetidin-3-yl)methyl)piperidin-4-yl)(phenyl)methyl)cyclopentyl methylcarbamate], the IC50 in assay [1] (setting [2]) amounted to 7.71 µM; in assay [1] (setting [3]), 3.5 µM; at menin protein it was 68 nM.

Turning to `COC(=O)N[C@H]1CCC[C@@H]1C(C#N)(c1ccccc1)C1CCN(CC2CN(c3ccc(S(=O)(=O)c4ccncc4)cc3)C2)CC1` (mixture of isomers) [Cpd. No. 345, methyl (rac-(1S,2R)-2-(cyano(phenyl)(1-((1-(4-(pyridin-4-ylsulfonyl)phenyl)azetidin-3-yl)methyl)piperidin-4-yl)methyl)cyclopentyl)carbamate], the IC50 in assay [1] (setting [2]) is 0.71 µM; in assay [1] (setting [3]), 0.54 µM; at menin protein, 11 nM.

Take `CC(=O)O[C@H]1CCC[C@@H]1C1(C2CCN(CC3CN(c4ccc(S(=O)(=O)c5ccncc5)cc4)C3)CC2)CN(C)Cc2ccccc21` (mixture of isomers) [compound 206, rac-(1S,2R)-2-(2-methyl-4-(1-((1-(4-(pyridin-4-ylsulfonyl)phenyl)azetidin-3-yl)methyl)piperidin-4-yl)-1,2,3,4-tetrahydroisoquinolin-4-yl)cyclopentyl acetate]: the IC50 in assay [1] (setting [2]) worked out at 0.411 ± 0.3 µM; in assay [1] (setting [3]), 0.119 ± 0.048 µM; at menin protein it was 3 nM.

For `COC(=O)N[C@H]1CCC[C@@H]1C(Cn1ccnc1)(c1ccccc1)C1CCN(CC2CN(c3ccc(S(=O)(=O)c4cnn(C)c4)cc3)C2)CC1` (mixture of isomers) [compound 392, methyl rac-((1S,2R)-2-(2-(1H-imidazol-1-yl)-1-(1-((1-(4-((1-methyl-1H-pyrazol-4-yl)sulfonyl)phenyl)azetidin-3-yl)methyl)piperidin-4-yl)-1-phenylethyl)cyclopentyl) carbamate], the IC50 turned out to be 0.76 ± 0.32 µM in assay [1] (setting [2]), 0.084 ± 0.032 µM in assay [1] (setting [3]) and 7 nM at menin protein.

As to `CC(=O)O[C@H]1CCC[C@@H]1C(C#N)(c1ccccc1)C1CCN(CC2CN(c3ccc(S(=O)(=O)C4CC4)cc3)C2)CC1` (mixture of isomers) [compound 187, rac-(1S,2R)-2-(cyano(1-((1-(4-(cyclopropylsulfonyl)phenyl)azetidin-3-yl)methyl)piperidin-4-yl)(phenyl)methyl)cyclopentyl acetate], the IC50 in assay [1] (setting [2]) was found to be 1.9 ± 0.7 µM; in assay [1] (setting [3]), 1.2 ± 0.3 µM; at menin protein, 18 nM.

Take `CC(C)S(=O)(=O)c1ccc(N2CC(CN3CCC(C4(C5CCCC5)NCCc5ccccc54)CC3)C2)cc1` (stereo not drawn) [compound 134, 1-cyclopentyl-1-(1-((1-(4-(isopropylsulfonyl)phenyl)azetidin-3-yl)methyl)piperidin-4-yl)-1,2,3,4-tetrahydroisoquinoline]: the figures for the IC50 (in assay [1] (setting [4]); in assay [1] (setting [5]); on menin protein) were 3.8 µM, 1.1 µM and 67 nM, respectively.
